Legend:
[1] = target: T1, Aldehyde dehydrogenase B (ADB) (Escherichia coli, UniProt P37685); experiment: ABPP labeling of E. coli cytosol; type: binding; conditions: 100 nM probe concentration, no other off targets
T1 construct: endogenous in cells; host or cells: Escherichia coli K12 lysate, cytosol fraction
Procedure: To estimate the strength of probe interactions with proteins in the proteome, we compared the reactivity profiles of selected beta-lactones across a broad concentration range from 10 μM to 5 nM.
Proteome samples were adjusted to a final concentration of 1 mg protein/mL by dilution in PBS prior to probe labeling. Experiments for visualization by 1D SDS-PAGE were carried out in 43 μL total volume and those for affinity enrichment in 1892 μL total volume, such that once CC reagents were added, the total reaction volume was 50 μL and 2 mL, respectively. Reactions were initiated by addition of the probe and allowed to incubate for 60 min at room temperature. For heat controls the proteome was denatured with 1 μL of 43% SDS at 95° C. for 6 min and cooled to room temperature before the probe was applied. Following incubation, reporter tagged-azide reagents (13 μM rhodamine-azide for analytical or 20 μM rhodamine-biotin-azide for preparative scale) were added followed by 1 mM TCEP and 100 μM ligand. Samples were gently vortexed and the cycloaddition initiated by the addition of 1 mM CuSO4. The reactions were incubated at room temperature for 1 h (Speers, J. Amer. Chem. Soc. 125 (2003), 4686).

[2] = target: T2, ClpP (Staphylococcus aureus, UniProt Q2G036); experiment: In vivo labelling of the proteome of S. aureus; type: cell-based
T2 construct: endogenous in cells
T2 sequence (Q2G036 1-195): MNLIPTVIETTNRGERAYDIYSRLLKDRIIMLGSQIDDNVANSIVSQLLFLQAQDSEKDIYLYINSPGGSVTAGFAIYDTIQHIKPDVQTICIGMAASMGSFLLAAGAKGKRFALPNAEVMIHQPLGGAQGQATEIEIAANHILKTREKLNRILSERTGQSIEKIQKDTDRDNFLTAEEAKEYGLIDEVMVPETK
Procedure: FIG. 16: In vivo labelling of the proteome of S. aureus with beta-lactones. Probes were applied at a certain concentration to approx. 2×10^9 cfu of stationary phase S. aureus in 100 μL PBS and incubated for 2 h. Excess probe (beta-lactone) was removed by washing the cells 3× with 1 mL PBS each. Then the cells were lysed by sonication. ClpP has been identified by mass spectrometry from preparative SDS gels after workup and tryptic digestion. B) In vivo dose down of beta-lactones D3, E2 and G2 with S. aureus indicates strong labeling by beta-lactone D3. C) Increase of selectivity at 8.0 μM concentration.
This example relates to the in vivo labelling of the proteome of S. aureus with β-lactones. The beta-lactones were applied at a certain concentration to approx. 2×10^9 cfu of stationary phase S. aureus in 100 μL PBS and incubated for 2 h. Excess beta-lactone was removed by washing the cells 3× with 1 mL PBS each. Then the cells were lysed by sonication. […] ClpP has been identified by mass spectrometry from preparative SDS gels after workup and tryptic digestion.

[3] = target: T3, ClpP (Listeria monocytogenes serovar 1/2a, UniProt Q9RQI6); experiment: In vivo labeling of Listeria proteomes; type: cell-based; conditions: living L. monocytogenes EGDe, cytosol, 2 h incubation
T3 construct: endogenous in cells; host or cells: living Listeria monocytogenes EGDe, stationary phase
T3 sequence (Q9RQI6 whole entry): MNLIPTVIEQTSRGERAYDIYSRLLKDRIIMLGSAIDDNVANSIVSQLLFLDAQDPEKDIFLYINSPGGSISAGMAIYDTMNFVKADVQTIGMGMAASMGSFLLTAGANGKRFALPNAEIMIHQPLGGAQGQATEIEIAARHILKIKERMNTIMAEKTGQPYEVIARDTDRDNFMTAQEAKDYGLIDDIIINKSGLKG
Procedure: For analytical and preparative in vivo studies, Listeria were grown to stationary phase and harvested by centrifugation at 4,000 rpm 1 h after entrance in the stationary phase (1.5 ml for analytical and 15 ml for preparative studies). The cell pellets were washed once with PBS and resuspended in 100 μL and 500 μL PBS for analytical and preparative studies, respectively. The cell suspensions were incubated for 2 h with varying concentrations of probe at room temperature. Probes were applied from DMSO stocks whereby DMSO never exceeded 2% in the final solution. For preparative experiments, 50 μM of the probes was added to the cells resuspended in PBS. After incubation, the cells were washed thoroughly three times with PBS to remove excess probe from the supernatant. Subsequently the cells were lysed in 100 μL (500 μL) PBS by sonication with a Bandelin Sonopuls with 3×20 sec. pulsed at 70% max. power. For analytical experiments 44 μL proteome were used to append a reporter tag via CC, such that once CC reagents were added, the total reaction volume was 50 μL. In preparative purposes the total volume of 500 μL it was consumed per experiment. Reporter tagged-azide reagents (13 μM rhodamine-azide for analytical or 20 μM rhodamine-biotin-azide for preparative scale) were added followed by 1 mM TCEP and 100 μM ligand. Samples were gently vortexed and the cycloaddition initiated by the addition of 1 mM CuSO4. The reactions were incubated at room temperature for 1 h. For analytical gel electrophoresis, 50 μL 2×SDS loading buffer were added and 50 μL applied on the gel. Fluorescence was recorded in a Fujifilm Las-3000 Fluoreszenz Darkbox with a Fujinon VRF 43LMD Lens, 605DF40 filter and 520 nm EPI excitation wavelength.

[4] = tested on: LLO haemolytic activity of L. monocytogenes EGDe; experiment: LLO haemolytic activity testing of culture supernatants; type: cell-based, Listeria monocytogenes EGDe; conditions: sheep red blood cells
Procedure: Overnight cultures of L. monocytogenes EGDe were harvested by centrifugation and resuspended in an equal volume of fresh BHB medium. In 1.5 mL Eppendorf tubes, 400 μL of BHB medium were inoculated with 4 μL of the resuspended Listeria culture and 4 μL of a corresponding beta-lactone stock in DMSO. The final concentrations were 800 μM, 400 μM, 200 μM, 100 μM and DMSO as control. The amount of DMSO in all tests was 1% of the medium. After mixing, the test tubes were incubated under continuous shaking at 200 rpm at 37° C. for 16 h. Then, cells were centrifuged and the supernatants filtered sterile by passing them through a 0.2 μm pore size filter. Haemolytic activity of LLO in the culture supernatants was quantitatively investigated according to a method described in J. Food Safety 1998, 18: 197-203 (incorporated herein by reference) with some modifications. In Nunclon™ 96-well plates with round shaped wells 100 μL of serial dilutions of the supernatants in PBS were added per well and incubated with 100 μL of 3% SRBC (sheep red blood cells) resuspended in PBS for 15 min at 37° C. under gentle shaking. The 96-well plates were centrifuged at 600 rpm for 5 min and the minimum dilution at which intact blood cells began to form a pellet was recorded. Controls with no lactone were set 100%. Buffer only controls and pure BHB medium yielded no haemolysis.

T1 sequence (P37685 whole entry): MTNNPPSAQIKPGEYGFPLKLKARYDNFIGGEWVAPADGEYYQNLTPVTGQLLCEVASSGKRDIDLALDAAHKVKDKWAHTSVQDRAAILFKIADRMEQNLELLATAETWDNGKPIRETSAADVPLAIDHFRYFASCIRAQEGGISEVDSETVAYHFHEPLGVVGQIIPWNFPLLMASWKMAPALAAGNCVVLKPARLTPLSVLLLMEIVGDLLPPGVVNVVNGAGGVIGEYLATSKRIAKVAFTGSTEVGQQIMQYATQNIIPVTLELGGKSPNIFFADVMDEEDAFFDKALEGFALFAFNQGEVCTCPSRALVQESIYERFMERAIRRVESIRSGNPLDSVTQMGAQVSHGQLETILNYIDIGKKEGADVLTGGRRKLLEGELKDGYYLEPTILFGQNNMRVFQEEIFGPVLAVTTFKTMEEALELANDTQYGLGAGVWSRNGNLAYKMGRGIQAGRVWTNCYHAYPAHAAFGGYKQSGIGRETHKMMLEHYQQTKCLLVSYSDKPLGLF

SMILES: C#CCCCC1OC(=O)C1CCCCCCCC=C (stereo not drawn) [D3, trans-3-(8-nonen-1-yl)-4-(4-pentyn-1-yl)oxetan-2-one]
- ADB labeling preference [1]: strong preference
- ClpP labelling ([2]; 8.0 μM concentration): still labelled
- off-targets (selectivity) ([2]; 8.0 μM concentration): almost no off-targets are visible
- ClpP labelling in in vivo dose down ([2]; stationary phase S. aureus, 2 h, dose down of D3, E2, G2): strong labelling
- ClpP labeling (probe potency ranking) [3]: most potent probes
- EC50 ([4]; Listeria monocytogenes, Erythrocyte, cultures grown 16 h with lactone, read-out: EC50 of reduction of LLO haemolytic activity): 100 µM
- reduction (inhibition) of haemolytic activity ([4]; cultures grown 16 h with 100-800 μM lactone): 80%

— patent US9521845B2, “Beta-lactones as antibacterial agents” (LUDWIG-MAXIMILIANS-UNIVERSITÄT-MÜNCHEN, priority 2008, dated 2016)
